According to patent US20250230193A1, “CYCLIC COMPOUND HAVING SELECTIVE KRAS INHIBITORY EFFECT ON HRAS AND NRAS” (CHUGAI SEIYAKU KABUSHIKI KAISHA, priority 2022, published 2025):
*1 amine or outer side, *2 acyl side, *3 side chain or, on linkers, in order; H or OH if unused. Where a SMILES comes first, the peptide text is derived from it. Bridges are numbered along the chain shown (N, C = ends). [ ]: non-standard residue; d: D form. The star is where a group is joined. hPhe(3-Cl-4-CF3) = N[C@@H](CCc1ccc(C(F)(F)F)c(Cl)c1)C(=O)O; X37 = O=C([C@H](Cc1ccc(C(F)(F)F)cc1)N(CC1CCC1)[*:1])[*:2]; NMeGly(cPent) = CN[C@H](C(=O)O)C1CCCC1; NMeD = CN[C@@H](CC(=O)O)C(=O)O; NMeL = CN[C@@H](CC(C)C)C(=O)O; Morpholide = C1CN(*)CCO1; NMeA = CN[C@@H](C)C(=O)O; Ac5c = NC1(C(=O)O)CCCC1; Aze = O=C(O)[C@@H]1CCN1; Sar = CNCC(=O)O

How the values were obtained:
[1] = molecular target: GDP-bound NRAS wild-type protein (Homo sapiens, UniProt P01111); assay: Binding to NRAS by surface plasmon resonance (SPR), Single Cycle Kinetics; settings: SPR
Chain of GDP-bound NRAS wild-type protein (P01111 whole entry): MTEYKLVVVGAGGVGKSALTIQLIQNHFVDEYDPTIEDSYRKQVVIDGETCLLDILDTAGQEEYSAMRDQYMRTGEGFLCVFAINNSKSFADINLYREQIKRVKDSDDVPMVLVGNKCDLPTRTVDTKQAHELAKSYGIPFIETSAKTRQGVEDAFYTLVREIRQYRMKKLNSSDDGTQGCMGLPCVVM

[2] = molecular target: GDP-bound HRAS wild-type protein (Homo sapiens, UniProt P01112); assay: Binding to HRAS by surface plasmon resonance (SPR), Single Cycle Kinetics; settings: SPR
Chain of GDP-bound HRAS wild-type protein (P01112 whole entry): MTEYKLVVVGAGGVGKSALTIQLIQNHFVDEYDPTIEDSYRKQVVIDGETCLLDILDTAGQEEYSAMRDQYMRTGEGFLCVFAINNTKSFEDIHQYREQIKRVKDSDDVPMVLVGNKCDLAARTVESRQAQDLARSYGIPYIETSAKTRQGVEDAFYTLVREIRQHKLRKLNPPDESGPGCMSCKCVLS

[3] = GDP-bound NRAS wild-type vs GDP-bound KRAS wild-type
[4] = GDP-bound HRAS wild-type vs GDP-bound KRAS wild-type

SMILES	NRAS/KRAS (ratio of KD value with respect to NRAS to KD value with respect to KRAS) [1, 3]	HRAS/KRAS (ratio of KD value with respect to HRAS to KD value with respect to KRAS) [2, 4]	other results
CC[C@H](C)[C@@H]1NC(=O)[C@H](CC(C)C)N(C)C(=O)C[C@@H](C(=O)N2CCOCC2)N(C)C(=O)[C@H](C2CCCC2)N(C)C(=O)C2(CCCC2)NC(=O)[C@@H]2CCCN2C(=O)[C@H](CCc2ccc(C(F)(F)F)c(Cl)c2)NC(=O)CN(C)C(=O)[C@H](Cc2ccc(C(F)(F)F)cc2)N(CC2CCC2)C(=O)[C@@H]2CCN2C(=O)[C@H](C)N(C)C1=O [PP0109] ([NMeL]I[NMeA][Aze][X37][Sar][hPhe(3-Cl-4-CF3)]P[Ac5c][NMeGly(cPent)][NMeD]-Morpholide; lactam N-11)			NRAS/KRAS (ratio of KD for GDP-bound NRAS wild-type to KD for KRAS) ([1]; KD ratio NRAS/KRAS): C (A compound having a KD ratio of 0.1 or more and less than 3 is denoted as C); HRAS/KRAS (ratio of KD for GDP-bound HRAS wild-type to KD for KRAS) ([2]; KD ratio HRAS/KRAS): B (a compound having 3 or more and less than 10 is denoted as B)
CCC[C@H]1C(=O)N[C@@H]([C@@H](C)CC)C(=O)N(C)CC(=O)N(C)[C@H]2C/C=C\CCN(C2=O)[C@@H](Cc2ccc(C(F)(F)F)cc2)C(=O)N(C)CC(=O)N[C@@H](CCc2ccc(C(F)(F)F)c(Cl)c2)C(=O)N2C[C@@H](C)C[C@H]2C(=O)NC2(CC(C)(C)C2)C(=O)N(C)[C@@H](C2CCCC2)C(=O)N(C)[C@H](C(=O)N(C)C)CC(=O)N1C [PP2270]	B (a compound having 3 or more and less than 10 is denoted as B)	B (a compound having 3 or more and less than 10 is denoted as B)	
CCO[C@@H]1C[C@H]2C(=O)NC3(CC(C)(C)C3)C(=O)N(C)[C@@H](C(CC)CC)C(=O)N(C)[C@H](C(=O)N(C)C)CC(=O)N(C)[C@@H](C(C)C)C(=O)N[C@@H]([C@@H](C)CC)C(=O)N(C)CC(=O)N(C)[C@H]3C/C=C\CCN(C3=O)[C@@H](CC3CCC(F)(F)CC3)C(=O)N(C)CC(=O)N[C@@H](CCc3ccc(C(F)(F)F)c(Cl)c3)C(=O)N2C1 [PP2492]	AA (a compound having 20 or more is denoted as AA)	A (a compound having 10 or more and less than 20 is denoted as A)	
CC[C@H](C)[C@@H]1NC(=O)[C@H](CC)N(C)C(=O)C[C@@H](C(=O)N(CC)CC)N(C)C(=O)[C@H](C2CCCC2)N(C)C(=O)C2(CC(C)(C)C2)NC(=O)[C@@H]2C[C@@H](C)CN2C(=O)[C@H](CCc2ccc(C(F)(F)F)c(OC)c2)NC(=O)CN(C)C(=O)[C@H](Cc2ccc(C)cc2)N2CC/C=C\C[C@@H](C2=O)N(C)C(=O)CN(C)C1=O [PP1841]			NRAS/KRAS (ratio of KD value for NRAS to KD value for KRAS) ([1]; KD ratio, GDP-bound NRAS wild-type vs GDP-bound KRAS wild-type): AA (a compound having 20 or more is denoted as AA); HRAS/KRAS (ratio of KD value for HRAS to KD value for KRAS) ([2]; KD ratio, GDP-bound HRAS wild-type vs GDP-bound KRAS wild-type): A (a compound having 10 or more and less than 20 is denoted as A)
CCCN1C(=O)[C@H](C2CCCC2)N(C)C(=O)C2(CCC2)NC(=O)[C@@H]2C[C@@H](OCC)CN2C(=O)[C@H](CCc2cc(F)c(C(F)(F)F)c(F)c2)NC(=O)CN(C)C(=O)[C@H](Cc2ccc(C(F)(F)F)cc2)N2CCCC[C@@H](C2=O)N(C)C(=O)CN(C)C(=O)[C@H]([C@@H](C)CC)NC(=O)[C@H](CC)N(C)C(=O)C[C@H]1C(=O)N(C)C [PP0644]			NRAS/KRAS (ratio of KD value with respect to GDP-bound NRAS wild-type protein to KD value with respect to KRAS) ([1]; KD ratio NRAS/KRAS): C (A compound having a KD ratio of 0.1 or more and less than 3 is denoted as C); HRAS/KRAS (ratio of KD value with respect to GDP-bound HRAS wild-type protein to KD value with respect to KRAS) ([2]; KD ratio HRAS/KRAS): B (a compound having 3 or more and less than 10 is denoted as B)
CCC[C@H]1C(=O)N[C@@H]([C@@H](C)CC)C(=O)N2CCC[C@H]2C(=O)N(C)[C@H]2C/C=C\CCN(C2=O)[C@@H](Cc2ccc(C)cc2)C(=O)N(C)CC(=O)N[C@@H](CCc2ccc(C(F)(F)F)c(OC)c2)C(=O)N2C[C@H](OCC)C[C@H]2C(=O)N(C)C2(CCC2)C(=O)N(C)[C@@H](C(CC)CC)C(=O)N(C)[C@H](C(=O)N(C)C)CC(=O)N1C [PP2329]	A (a compound having 10 or more and less than 20 is denoted as A)	A (a compound having 10 or more and less than 20 is denoted as A)	
CCO[C@@H]1C[C@H]2C(=O)NC3(CC(C)(C)C3)C(=O)N(C)[C@@H](C(CC)CC)C(=O)N(C)[C@H](C(=O)N(C)C)CC(=O)N(C)[C@@H](C(C)C)C(=O)N[C@@H]([C@@H](C)CC)C(=O)N(C)CC(=O)N(C)[C@H]3C/C=C\CCN(C3=O)[C@@H](Cc3ccc(C(F)(F)F)cc3)C(=O)N(C)CC(=O)N[C@@H](CCc3ccc(C(F)(F)F)c(Cl)c3)C(=O)N2C1 [PP2140]	AA (a compound having 20 or more is denoted as AA)	A (a compound having 10 or more and less than 20 is denoted as A)	
CC[C@H](C)[C@@H]1NC(=O)[C@H](C2CC2)N(C)C(=O)C[C@@H](C(=O)N(C)CC)N(C)C(=O)[C@H](C2CCCC2)N(C)C(=O)C2(CCC2)NC(=O)[C@@H]2C[C@H](C)CN2C(=O)[C@H](CCc2ccc(C(F)(F)F)c(OC)c2)NC(=O)CN(C)C(=O)[C@H](Cc2ccc(C(F)(F)F)cc2)N2CC/C=C\C[C@@H](C2=O)N(C)C(=O)CN(C)C1=O [PP2069]	AA (a compound having 20 or more is denoted as AA)	A (a compound having 10 or more and less than 20 is denoted as A)	
